# According to patent US20240116985A1, “STAPLED PEPTIDES AND METHODS THEREOF” (priority 2020, published 2024):
# Like-named read-outs stand apart in the source and are kept apart here.
# Assays:
# [1] = target: T1, full-length beta-Catenin (Uniprot ID P35222) (Homo sapiens, UniProt P35222); test: Fluorescence polarization IC50 (beta-catenin / 5FAM-TCF4 10-53 competition); assay type: binding; details: fluorescence polarization; read-out: beta-Catenin FP IC50
# T1 construct: 10 nM full-length beta-Catenin (Uniprot ID P35222)
# T1 sequence (P35222 1-781): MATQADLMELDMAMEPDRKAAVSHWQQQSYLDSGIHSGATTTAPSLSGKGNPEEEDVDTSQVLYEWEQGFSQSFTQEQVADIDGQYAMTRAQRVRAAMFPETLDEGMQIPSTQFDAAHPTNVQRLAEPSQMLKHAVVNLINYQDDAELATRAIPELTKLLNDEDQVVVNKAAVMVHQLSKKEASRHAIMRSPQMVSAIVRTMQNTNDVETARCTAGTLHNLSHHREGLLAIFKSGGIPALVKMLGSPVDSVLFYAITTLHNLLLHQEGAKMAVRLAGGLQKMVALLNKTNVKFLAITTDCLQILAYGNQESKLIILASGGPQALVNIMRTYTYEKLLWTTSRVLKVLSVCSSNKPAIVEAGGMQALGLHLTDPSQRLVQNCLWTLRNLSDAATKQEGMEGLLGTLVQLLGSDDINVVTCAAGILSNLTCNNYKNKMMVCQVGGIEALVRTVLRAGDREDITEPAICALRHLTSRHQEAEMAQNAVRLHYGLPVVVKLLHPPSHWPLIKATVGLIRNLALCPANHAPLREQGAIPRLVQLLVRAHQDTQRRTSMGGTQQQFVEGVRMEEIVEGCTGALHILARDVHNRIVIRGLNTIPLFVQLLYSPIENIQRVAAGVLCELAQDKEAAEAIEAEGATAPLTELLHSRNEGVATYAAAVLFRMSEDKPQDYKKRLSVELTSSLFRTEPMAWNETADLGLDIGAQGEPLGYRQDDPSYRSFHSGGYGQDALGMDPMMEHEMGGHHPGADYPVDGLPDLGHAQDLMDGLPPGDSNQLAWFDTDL
# [2] = target: T2, beta-catenin/TCF4 engagement (Homo sapiens, UniProt P35222); test: Nano-BRET target engagement assay (B-cat-Halo & TCF4-Luc in HEK293 cells); assay type: cell-based; details: absolute IC50; read-out: NanoBRET Abs IC50
# T2 construct: expressed in transfected cells; host or cells: HEK293
# T2 sequence (P35222 1-781): T1 sequence (P35222 1-781)
# [3] = test system: TCF/LEF luciferase Reporter in DLD1 cells; test: TCF reporter assay (DLD1 TCF/LEF luciferase reporter, Bright-Glo); assay type: cell-based; details: absolute IC50
# Description: Those skilled in the art will appreciate that other suitable reagents may be utilized and various parameters may be adjusted.
# DLD1 reporter cell line was generated by using TCF/LEF luciferase Reporter Lentivirus (BPS Bioscience Catalog #79787). Parental DLD1 cells (ATCC@ CCL-221) were transfected with the lentivirus and followed by 3-day puromycin selection. Single clone was selected for Reporter assay.
# On Day 1, cultured cells in flasks that are no more than about 60-70% confluent were washed with PBS and typsinized in 3 mL/T75 until cells were free floating. Spin down cells for 5 minutes at 1100RPM. While cells spin, determine the number of plates (3 compounds per plate) needed. After spinning, aspirate the supernatant gently and add 10 mL media (RPMI+4% FBS), and re-suspend and mix the cells gently. Count the cells twice in the cell counter Countess and take average of both the counts, and determine how many cells are needed. After plating cells at 5000 cells/well, seal with aerseal film. 90 uL cells/well. Incubate at 37° C. overnight, tap gently to mix and don't stack plates.
# On Day 2, compounds were added. Stock solution was 10 mM. Make the DMSO containing media by adding 36 uL DMSO to 10 mL of media. Make the dilution wells by transferring 100 uL DMSO+Media into rows B-F of a protein LoBind 96-well plate. Row G is empty. Add any extra DMSO+media to row H. Transfer 4 uL of stock solution to Row A. One compound per column. Add 196 uL media to Row A, no DMSO in the media. Concentration of Row A was 200 uM. Mix well and do a 6 pt, 1:2 serial dilution, mix ×10 per transfer and change tips before each transfer. Removed excess volume from final well (row F) and discard. Transfer 10 uL of the compound containing media to cells with a multichannel according to plate maps. Add 60 uL DMSO containing media to the DMSO wells. The edge wells were typically not used in the assay and could be ignored if needed or replaced with PBS, but there typically were liquids in the wells. Cover plates with breathable plate sealer and incubate overnight.
# A 96-well plate may be utilized to prepare dilution series for up to 12 compounds, each with several concentrations (e.g., 200, 100, 50, 25, 12.5, 6.25 and 0 uM; can be utilized as 100× depending on final test concentrations).
# 0 uM is the DMSO control for the whole plate. Edge well filled with 90 uL cells+10 uL DMSO containing media.
# On Day 3, luciferase levels were assessed using Bright-Glo (Promega). Equilibrate Bright-Glo to room temperature before addition. 7 mL of mixed Bright-Gbo per plate. Unused Bright-Glo could be store at −80° C. Reconstituted reagent can be stored for up to 1 month at −80° C., or after one freeze-thaw. When ready to read, remove plates from incubator and let sit at room temperature for 15 minutes. Typically stagger taking out plates if reading multiple plates before adding the Bright-Glo. Add 90 uL/well Bright-Glo and shake gently for 3 minutes. Read luminescence on GloMax immediately using ‘BrightGlo’ programs.
# Cellular activity was assessed using CTG. Equilibrate CTG reagents to room temperature. Equilibrate plates to room temp, e.g. 15 min. Use same time length for all plates. Add CTG reagent, 25 uL if using undiluted, or 90 uL if diluted 1 to 4. Shake for 2 min to induce cell lysis. Allow plate to incubate at RT for 10 min to stabilize lumine sent signal. Read luminesence using program ‘CellTiter-Glo’. Use Prism to find the Absolute IC50 (AbsIC50=X[50]) of each compound.
# [4] = read-out: DLD1 reporter assay Abs IC50
# [5] = read-out: DLD1 4% Abs IC50, DLD1 reporter, 4%
IC50 [1],IC50 [2],"IC50 [3, 4]","IC50 [3, 5]","IC50 ([3]; read-out: DLD1 4% Abs IC50, DLD1 reporter assay, 4%)",SMILES
0.013 µM,24.3 µM,15.9 µM,16.2 µM,,"CC(=O)N1CCC[C@]12CC=CCCCC1(CCCC=CCCCOC(=O)N3CC[C@@](C(=O)N[C@@H](Cc4ccccc4Cl)C(=O)N[C@@H](Cc4csc5ccccc45)C(=O)N[C@@H](C)CO)(C3)NC(=O)[C@H]([C@@H](C)O)NC(=O)[C@H](Cc3ccccc3)NC(=O)[C@H](C)NC(=O)[C@H](C)NC(=O)[C@H](CC(=O)O)NC(=O)[C@H](CC(=O)O)NC1=O)NC(=O)[C@H](CC(C)(C)C)NC(=O)[C@H](CC(=O)O)NC2=O (stereo partly drawn) [I-1246, Ac-PL3-Asp-Npg-B5-Asp-Asp-Ala-Ala-Phe-Thr-PyrS2-2C1F-BztA-Alao1]"
0.033 µM,> 20 µM,> 20 µM,,,"CC(=O)N1CCC[C@]12CC=CCCCC1(CCCC=CCCCOC(=O)N3CC[C@@](C(=O)N[C@@H](Cc4ccccc4Cl)C(=O)N[C@@H](Cc4csc5ccccc45)C(=O)N[C@H](CO)CC(C)C)(C3)NC(=O)[C@H]([C@@H](C)O)NC(=O)[C@H](Cc3ccccc3)NC(=O)[C@H](C)NC(=O)[C@H](C)NC(=O)[C@H](CC(=O)O)NC(=O)[C@H](CC(=O)O)NC1=O)NC(=O)[C@H](CC(C)(C)C)NC(=O)[C@H](CC(=O)O)NC2=O (stereo partly drawn) [I-1247, Ac-PL3-Asp-Npg-B5-Asp-Asp-Ala-Ala-Phe-Thr-PyrS2-2C1F-BztA-Leuo1]"
0.01 µM,5.3 µM,,,4 µM,"CC(=O)N1CCC[C@]12CC=CCCCC1(CCCC=CCCCOC(=O)N3CC[C@@](C(=O)N[C@@H](Cc4ccccc4C(F)(F)F)C(=O)N[C@@H](Cc4csc5ccccc45)C(=O)N[C@@H](CC(=O)N4CCN(C)CC4)C(N)=O)(C3)NC(=O)[C@H](CC(C)C)NC(=O)[C@H](Cc3ccccc3)NC(=O)[C@H](C)NC(=O)[C@H](C)NC(=O)[C@H](Cc3cccc(C(=O)O)c3)NC(=O)[C@H](CC(=O)O)NC1=O)NC(=O)[C@H](CC(C)(C)C)NC(=O)[C@H](CC(=O)O)NC2=O (stereo partly drawn) [I-1612, Ac-PL3-Asp-Npg-B5-Asp-3COOHF-Ala-Ala-Phe-Leu-PyrS2-2F3MeF-BztA-MePpzAsn-NH2]"

# The next lines start with the compound.
SMILES,IC50 [1],IC50 [2],"IC50 [3, 4]","IC50 [3, 5]","IC50 ([3]; read-out: DLD1 4% Abs IC50, DLD1 reporter assay, 4%)"
"CC(=O)N1CCC[C@]12CC=CCCCC1(CCCC=CCCCOC(=O)N3CC[C@@](C(=O)N[C@@H](Cc4ccccc4Cl)C(=O)N[C@@H](Cc4csc5ccccc45)C(=O)N[C@@H](C)CO)(C3)NC(=O)[C@H]([C@@H](C)O)NC(=O)[C@H](Cc3ccccc3)NC(=O)[C@H](C)NC(=O)[C@H](C)NC(=O)[C@H](CN(CC(=O)O)CC(F)(F)F)NC(=O)[C@H](CC(=O)O)NC1=O)NC(=O)[C@H](CC(C)(C)C)NC(=O)[C@H](CC(=O)O)NC2=O (stereo partly drawn) [I-1242, Ac-PL3-Asp-Npg-B5-Asp-TfeGA-Ala-Ala-Phe-Thr-PyrS2-2C1F-BztA-Alao1]",0.03 µM,> 20 µM,4.8 µM,3.8 µM,
"CCNC(=O)[C@H](CO)NC(=O)[C@H](Cc1csc2ccccc12)NC(=O)[C@H](Cc1ccccc1Cl)NC(=O)[C@]12CCN(C1)C(=O)OCCCC=CCCCC1(CCCC=CC[C@]3(CCCN3C(C)=O)C(=O)N[C@@H](CC(=O)O)C(=O)N[C@@H](CC(C)(C)C)C(=O)N1)C(=O)N[C@@H](CC(=O)O)C(=O)N[C@@H](CC(=O)O)C(=O)N[C@@H](C)C(=O)N[C@@H](C)C(=O)N[C@@H](Cc1ccccc1)C(=O)N[C@@H]([C@@H](C)O)C(=O)N2 (stereo partly drawn) [I-1244, Ac-PL3-Asp-Npg-B5-Asp-Asp-Ala-Ala-Phe-Thr-PyrS2-2C1F-BztA-Ser-NHEt]",0.018 µM,17.7 µM,13.9 µM,15.9 µM,
"CC(=O)N1CCC[C@]12CC=CCCCC1(CCCC=CCCCOC(=O)N3CC[C@@](C(=O)N[C@@H](Cc4ccccc4Cl)C(=O)N[C@@H](Cc4csc5ccccc45)C(=O)N[C@H](CO)[C@@H](C)O)(C3)NC(=O)[C@H]([C@@H](C)O)NC(=O)[C@H](Cc3ccccc3)NC(=O)[C@H](C)NC(=O)[C@H](C)NC(=O)[C@H](CC(=O)O)NC(=O)[C@H](CC(=O)O)NC1=O)NC(=O)[C@H](CC(C)(C)C)NC(=O)[C@H](CC(=O)O)NC2=O (stereo partly drawn) [I-1245, Ac-PL3-Asp-Npg-B5-Asp-Asp-Ala-Ala-Phe-Thr-PyrS2-2C1F-BztA-Thro1]",0.009 µM,12.2 µM,7.3 µM,4.1 µM,
"CC(=O)N1CCC[C@]12CC=CCCCC1(CCCC=CCCCOC(=O)N3CC[C@@](C(=O)N[C@@H](Cc4ccsc4)C(=O)N[C@@H](Cc4csc5ccccc45)C(=O)N[C@H](CO)[C@@H](C)O)(C3)NC(=O)[C@H](CC(C)C)NC(=O)[C@H](Cc3ccccc3)NC(=O)[C@H](C)NC(=O)[C@H](C)NC(=O)[C@H](CC(=O)O)NC(=O)[C@H](CC(=O)O)NC1=O)NC(=O)[C@H](CC(C)(C)C)NC(=O)[C@H](CC(=O)O)NC2=O (stereo partly drawn) [I-1302, Ac-PL3-Asp-Npg-B5-Asp-Asp-Ala-Ala-Phe-Leu-PyrS2-3Thi-BztA-Thro1]",0.045 µM,21.4 µM,,4 µM,
"CC(=O)N1CCC[C@]12CC=CCCCC1(CCCC=CCCCOC(=O)N3CC[C@@](C(=O)N[C@@H](Cc4ccccc4C(F)(F)F)C(=O)N[C@@H](Cc4csc5ccccc45)C(=O)N[C@@H](CCC(N)=O)C(N)=O)(C3)NC(=O)[C@H](CC(C)C)NC(=O)[C@H](Cc3ccccc3)NC(=O)[C@H](C)NC(=O)[C@H](C)NC(=O)[C@H](CC(=O)O)NC(=O)[C@H](CC(=O)O)NC1=O)NC(=O)[C@H](CC(C)(C)C)NC(=O)[C@H](CC(=O)O)NC2=O (stereo partly drawn) [I-1318, Ac-PL3-Asp-Npg-B5-Asp-Asp-Ala-Ala-Phe-Leu-PyrS2-2F3MeF-BztA-Gln-NH2]",0.014 µM,4.8 µM,,3.9 µM,
"CC(=O)N1CCC[C@]12CC=CCCCC1(CCCC=CCCCOC(=O)N3CC[C@@](C(=O)N[C@@H](Cc4ccsc4)C(=O)N[C@@H](Cc4csc5ccccc45)C(=O)N[C@@H](CCC(N)=O)C(N)=O)(C3)NC(=O)[C@H](CC(C)C)NC(=O)[C@H](Cc3ccccc3)NC(=O)[C@H](C)NC(=O)[C@H](C)NC(=O)[C@H](CN(CC(=O)O)CC(F)(F)F)NC(=O)[C@H](CC(=O)O)NC1=O)NC(=O)[C@H](CC(C)(C)C)NC(=O)[C@H](CC(=O)O)NC2=O (stereo partly drawn) [I-1461, Ac-PL3-Asp-Npg-B5-Asp-TfeGA-Ala-Ala-Phe-Leu-PyrS2-3Thi-BztA-Gln-NH2]",0.01 µM,3.7 µM,,1.7 µM,
